Results from patent US20150353495A1 (PORTOLA PHARMACEUTICALS, INC., priority 2010, published 2015).

Key:
Type in all cases: biochemical
JAK2 = molecular target: T1, JAK2 (Homo sapiens, UniProt O60674); experiment: Z'-LYTE kinase assay JAK2
T1 construct: 5 μl of catalytic domain recombinant Kinase enzyme+Tyr peptide substrate (Invitrogen, CA); purchased Invitrogen
Summary of the method: (§1)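 In duplicate wells, each test molecule (1% final DMSO) is incubated with recombinant kinase catalytic domain, Tyr6 peptide substrate and ATP for one hour at room temperature; a site-specific protease is then added for another hour before fluorescence reading.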

JAK3 = molecular target: T2, JAK3 (Homo sapiens, UniProt P52333); experiment: Z'-LYTE kinase assay JAK3
T2 construct: 5 μl of catalytic domain recombinant Kinase enzyme+Tyr peptide substrate (Invitrogen, CA); purchased Invitrogen
Summary of the method: as §1

JAK1 = molecular target: T3, JAK1 (Homo sapiens, UniProt P23458); experiment: Z'-LYTE kinase assay JAK1
T3 construct: 5 μl of catalytic domain recombinant Kinase enzyme+Tyr peptide substrate (Invitrogen, CA); purchased Invitrogen
Summary of the method: as §1

T1 sequence (O60674 849-1124 limits assumed): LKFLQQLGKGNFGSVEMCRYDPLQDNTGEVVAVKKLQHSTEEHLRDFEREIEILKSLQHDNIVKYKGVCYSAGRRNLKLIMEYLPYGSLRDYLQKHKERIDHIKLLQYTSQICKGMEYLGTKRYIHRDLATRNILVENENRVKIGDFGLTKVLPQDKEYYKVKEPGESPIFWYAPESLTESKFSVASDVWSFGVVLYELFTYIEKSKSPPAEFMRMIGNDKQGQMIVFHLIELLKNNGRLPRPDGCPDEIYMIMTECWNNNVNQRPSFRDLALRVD
T3 sequence (P23458 875-1153 limits assumed): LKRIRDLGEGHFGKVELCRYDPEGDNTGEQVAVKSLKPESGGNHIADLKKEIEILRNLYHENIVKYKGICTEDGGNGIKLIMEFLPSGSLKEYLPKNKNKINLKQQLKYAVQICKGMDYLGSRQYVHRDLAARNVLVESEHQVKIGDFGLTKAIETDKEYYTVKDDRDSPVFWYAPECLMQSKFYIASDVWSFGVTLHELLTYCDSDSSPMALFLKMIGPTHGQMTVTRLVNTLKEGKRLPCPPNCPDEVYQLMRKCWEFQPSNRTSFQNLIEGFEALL
T2 sequence (P52333 822-1111 limits assumed): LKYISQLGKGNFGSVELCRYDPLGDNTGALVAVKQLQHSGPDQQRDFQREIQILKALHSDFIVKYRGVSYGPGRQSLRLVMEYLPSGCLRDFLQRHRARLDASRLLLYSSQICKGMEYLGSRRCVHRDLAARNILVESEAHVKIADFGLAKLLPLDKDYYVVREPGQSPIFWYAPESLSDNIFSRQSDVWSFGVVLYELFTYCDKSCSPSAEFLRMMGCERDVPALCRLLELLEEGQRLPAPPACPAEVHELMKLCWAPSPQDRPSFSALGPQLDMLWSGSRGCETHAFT

Structure (SMILES)	IC50 (JAK2)	IC50 (JAK3)	IC50 (JAK1)
CN(C)C(=O)c1ccc(Nc2cc(NCc3ccncn3)c(C(N)=O)cn2)cc1 [Example 299, 6-(4-(dimethylcarbamoyl)phenylamino)-4-(pyrimidin-4-ylmethylamino)nicotinamide]	> 1000 nM	> 1000 nM	> 1000 nM
COc1ccc(Nc2cc(NCc3ncccn3)c(C(N)=O)cn2)cc1 [Example 300, 6-(4-methoxyphenylamino)-4-(pyrimidin-2-ylmethylamino)nicotinamide]	> 1000 nM	100 to 1000 nM	> 1000 nM
COc1ccc(Nc2cc(NCc3cccc(S(C)(=O)=O)c3)c(C(N)=O)cn2)cc1 [Example 301, 6-(4-methoxyphenylamino)-4-(3-(methylsulfonyl)benzylamino)nicotinamide]	> 1000 nM	10 to 100 nM	> 1000 nM
COc1ccc(Nc2cc(NCc3cccc4c3ccn4C)c(C(N)=O)cn2)cc1 [Example 303, 6-(4-methoxyphenylamino)-4-((1-methyl-1H-indol-4-yl)methylamino)nicotinamide]	> 1000 nM	10 to 100 nM	> 1000 nM
NC(=O)c1cnc(Nc2ccc(C(F)(F)F)cc2)cc1NCc1cncc(F)c1 [Example 305]	> 1000 nM	100 to 1000 nM	> 1000 nM
N#Cc1ccc(Nc2cc(NCc3cncc(F)c3)c(C(N)=O)cn2)cc1 [Example 308, 6-(4-cyanophenylamino)-4-((5-fluoropyridin-3-yl)methylamino)nicotinamide]	> 1000 nM	10 to 100 nM	> 1000 nM
NC(=O)c1cnc(Nc2ccc(OC(F)(F)F)cc2)cc1NCc1cncc(F)c1 [Example 310]	> 1000 nM	100 to 1000 nM	> 1000 nM
COc1ccc(Nc2cc(NCc3cccc4ccn(C)c34)c(C(N)=O)cn2)cc1 [Example 317, 6-(4-methoxyphenylamino)-4-((1-methyl-1H-indol-7-yl)methylamino)nicotinamide]	> 1000 nM	100 to 1000 nM	> 1000 nM
NC(=O)c1cnc(Nc2cc(F)cc(F)c2)cc1NCc1cccc2[nH]ccc12 [Example 323, 4-((1H-indol-4-yl)methylamino)-6-(3,5-difluorophenylamino)nicotinamide]	> 1000 nM	100 to 1000 nM	> 1000 nM
CN(C)C(=O)Cc1ccc(Nc2cc(NCc3ccccc3)c(C(N)=O)cn2)cc1 [Example 328, 4-(benzylamino)-6-(4-(2-(dimethylamino)-2-oxoethyl)phenylamino)nicotinamide]	100 to 1000 nM	1 to 10 nM	100 to 1000 nM
NC(=O)c1cnc(Nc2ccc(CC(=O)N3CCCC3)cc2)cc1NCc1ccccc1 [Example 329, 4-(benzylamino)-6-(4-(2-oxo-2-(pyrrolidin-1-yl)ethyl)phenylamino)nicotinamide]	100 to 1000 nM	1 to 10 nM	100 to 1000 nM
NC(=O)c1cnc(Nc2ccc(CC(=O)N3CCOCC3)cc2)cc1NCc1ccccc1 [Example 330, 4-(benzylamino)-6-(4-(2-morpholino-2-oxoethyl)phenylamino)nicotinamide]	100 to 1000 nM	1 to 10 nM	100 to 1000 nM
CN(C)C(=O)C1CN(c2ccc(Nc3cc(NCc4ccccc4)c(C(N)=O)cn3)cc2)C1 [Example 331, 4-(benzylamino)-6-(4-(3-(dimethylcarbamoyl)azetidin-1-yl)phenylamino)nicotinamide]	100 to 1000 nM	1 to 10 nM	100 to 1000 nM
COc1ccc(Nc2cc(NCc3ccccc3)c(C(N)=O)cn2)cc1Cl [Example 332, 4-(benzylamino)-6-(3-chloro-4-methoxyphenylamino)nicotinamide]	> 1000 nM	10 to 100 nM	> 1000 nM
CC(=O)N1CC(c2ccc(Nc3cc(NCc4cncc(F)c4)c(C(N)=O)cn3)cc2)C1 [Example 334, 6-(4-(1-acetylazetidin-3-yl)phenylamino)-4-((5-fluoropyridin-3-yl)methylamino)nicotinamide]	100 to 1000 nM	10 to 100 nM	100 to 1000 nM
CS(=O)(=O)N1CC(c2ccc(Nc3cc(NCc4ccccc4)c(C(N)=O)cn3)cc2)C1 [Example 335, 4-(benzylamino)-6-(4-(1-(methylsulfonyl)azetidin-3-yl)phenylamino)nicotinamide]	100 to 1000 nM	10 to 100 nM	100 to 1000 nM
COCC(=O)N1CC(c2ccc(Nc3cc(NCc4ccccc4)c(C(N)=O)cn3)cc2)C1 [Example 336, 4-(benzylamino)-6-(4-(1-(2-methoxyacetyl)azetidin-3-yl)phenylamino)nicotinamide]	100 to 1000 nM	1 to 10 nM	100 to 1000 nM
CN(C)C(=O)N1CC(c2ccc(Nc3cc(NCc4ccccc4)c(C(N)=O)cn3)cc2)C1 [Example 337, 4-(benzylamino)-6-(4-(1-(dimethylcarbamoyl)azetidin-3-yl)phenylamino)nicotinamide]	100 to 1000 nM	1 to 10 nM	100 to 1000 nM

More lines, now with the values ahead:

IC50 (JAK2)	IC50 (JAK3)	IC50 (JAK1)	Structure (SMILES)
100 to 1000 nM	10 to 100 nM	> 1000 nM	CN(C)C(=O)c1ccc(Nc2cc(NCc3cccc(S(C)(=O)=O)c3)c(C(N)=O)cn2)cc1 [Example 302, 6-(4-(dimethylcarbamoyl)phenylamino)-4-(3-(methylsulfonyl)benzylamino)nicotinamide]
100 to 1000 nM	1 to 10 nM	100 to 1000 nM	CN(C)C(=O)c1ccc(Nc2cc(NCc3cccc4c3ccn4C)c(C(N)=O)cn2)cc1 [Example 304, 6-(4-(dimethylcarbamoyl)phenylamino)-4-((1-methyl-1H-indol-4-yl)methylamino)nicotinamide]
100 to 1000 nM	10 to 100 nM	100 to 1000 nM	NC(=O)c1cnc(Nc2cccc(F)c2)cc1NCc1cncc(F)c1 [Example 306, 6-(3-fluorophenylamino)-4-((5-fluoropyridin-3-yl)methylamino)nicotinamide]
100 to 1000 nM	10 to 100 nM	> 1000 nM	NC(=O)c1cnc(Nc2cccc(Cl)c2)cc1NCc1cncc(F)c1 [Example 307, 6-(3-chlorophenylamino)-4-((5-fluoropyridin-3-yl)methylamino)nicotinamide]
100 to 1000 nM	10 to 100 nM	> 1000 nM	NC(=O)c1cnc(Nc2ccc(OC(F)F)cc2)cc1NCc1cncc(F)c1 [Example 309, 6-(4-(difluoromethoxy)phenylamino)-4-((5-fluoropyridin-3-yl)methylamino)nicotinamide]
100 to 1000 nM	10 to 100 nM	100 to 1000 nM	Cc1ccc(Nc2cc(NCc3cncc(F)c3)c(C(N)=O)cn2)cc1 [Example 311, 4-((5-fluoropyridin-3-yl)methylamino)-6-(p-tolylamino)nicotinamide]
100 to 1000 nM	1 to 10 nM	100 to 1000 nM	CN(C)C(=O)c1ccc(Nc2cc(NCc3cncc(F)c3)c(C(N)=O)cn2)cc1 [Example 312, 6-(4-(dimethylcarbamoyl)phenylamino)-4-((5-fluoropyridin-3-yl)methylamino)nicotinamide]
100 to 1000 nM	10 to 100 nM	100 to 1000 nM	NC(=O)c1cnc(Nc2ccc(C(=O)NCC(F)(F)F)cc2)cc1NCc1cncc(F)c1 [Example 313, 4-((5-fluoropyridin-3-yl)methylamino)-6-(4-(2,2,2-trifluoroethylcarbamoyl)phenylamino)nicotinamide]
100 to 1000 nM	10 to 100 nM	> 1000 nM	CN(CC(F)(F)F)C(=O)c1ccc(Nc2cc(NCc3cncc(F)c3)c(C(N)=O)cn2)cc1 [Example 314, 4-((5-fluoropyridin-3-yl)methylamino)-6-(4-(methyl(2,2,2-trifluoroethyl)carbamoyl)phenylamino)nicotinamide]
100 to 1000 nM	10 to 100 nM	100 to 1000 nM	COc1ccc(Nc2cc(NCc3cccc(F)n3)c(C(N)=O)cn2)cc1 [Example 315, 4-((6-fluoropyridin-2-yl)methylamino)-6-(4-methoxyphenylamino)nicotinamide]
100 to 1000 nM	1 to 10 nM	100 to 1000 nM	CN(C)C(=O)c1ccc(Nc2cc(NCc3cccc(F)n3)c(C(N)=O)cn2)cc1 [Example 316, 6-(4-(dimethylcarbamoyl)phenylamino)-4-((6-fluoropyridin-2-yl)methylamino)nicotinamide]
100 to 1000 nM	10 to 100 nM	> 1000 nM	CN(C)C(=O)c1ccc(Nc2cc(NCc3cccc4ccn(C)c34)c(C(N)=O)cn2)cc1 [Example 318, 6-(4-(dimethylcarbamoyl)phenylamino)-4-((1-methyl-1H-indol-7-yl)methylamino)nicotinamide]
100 to 1000 nM	1 to 10 nM	100 to 1000 nM	CC(=O)N1CC(c2ccc(Nc3cc(NCc4ccccc4)c(C(N)=O)cn3)cc2)C1 [Example 324, 6-(4-(1-acetylazetidin-3-yl)phenylamino)-4-(benzylamino)nicotinamide]
100 to 1000 nM	1 to 10 nM	> 1000 nM	NC(=O)c1cnc(Nc2ccc(C3CNC3)cc2)cc1NCc1ccccc1 [Example 325, 6-(4-(azetidin-3-yl)phenylamino)-4-(benzylamino)nicotinamide]
100 to 1000 nM	1 to 10 nM	100 to 1000 nM	CCC(=O)N1CC(c2ccc(Nc3cc(NCc4ccccc4)c(C(N)=O)cn3)cc2)C1 [Example 326, 4-(benzylamino)-6-(4-(1-propionylazetidin-3-yl)phenylamino)nicotinamide]
100 to 1000 nM	10 to 100 nM	> 1000 nM	COC(=O)N1CC(c2ccc(Nc3cc(NCc4ccccc4)c(C(N)=O)cn3)cc2)C1 [Example 327, methyl 3-(4-(4-(benzylamino)-5-carbamoylpyridin-2-ylamino)phenyl)azetidine-1-carboxylate]
